Laboratory results as given in ChEMBL document CHEMBL1141509, “Development of pyridopyrimidines as potent Akt1/2 inhibitors” (Bioorg Med Chem Lett, 2008).

Legend:
[1] = biological target: T1, RAC-alpha serine/threonine-protein kinase (Homo sapiens, UniProt P31749); assay: Inhibition of Akt1
[2] = biological target: T2, RAC-beta serine/threonine-protein kinase (Homo sapiens, UniProt P31751); assay: Inhibition of Akt2
[3] = biological target: T2, RAC-beta serine/threonine-protein kinase; assay: Inhibition of Akt2 in human C33A cells by immunoprecipitation kinase assay; type: cell-based, C-33-A
[4] = biological target: T1, RAC-alpha serine/threonine-protein kinase; assay: Inhibition of human Akt1 in human C33A cells by immunoprecipitation kinase assay; type: cell-based, C-33-A
[5] = biological target: T3, Serine/threonine-protein kinase Sgk1 (Homo sapiens, UniProt O00141); assay: Inhibition of SGK
T3 sequence (O00141 whole entry): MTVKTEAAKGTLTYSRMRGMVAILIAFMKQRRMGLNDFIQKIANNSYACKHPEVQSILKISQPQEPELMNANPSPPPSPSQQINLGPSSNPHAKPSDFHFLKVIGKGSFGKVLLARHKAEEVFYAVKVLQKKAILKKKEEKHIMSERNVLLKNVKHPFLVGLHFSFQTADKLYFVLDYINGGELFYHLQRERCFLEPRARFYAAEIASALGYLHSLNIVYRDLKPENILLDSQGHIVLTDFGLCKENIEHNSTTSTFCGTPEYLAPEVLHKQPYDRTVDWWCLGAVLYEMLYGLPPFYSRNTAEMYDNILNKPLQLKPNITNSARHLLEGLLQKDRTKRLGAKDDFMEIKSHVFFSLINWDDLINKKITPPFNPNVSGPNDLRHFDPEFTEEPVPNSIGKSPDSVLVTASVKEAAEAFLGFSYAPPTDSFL

[6] = Inhibition of PKA
[7] = biological target: RAC-gamma serine/threonine-protein kinase (Homo sapiens, UniProt Q9Y243); assay: Inhibition of Akt3
RAC-gamma serine/threonine-protein kinase, sequence (Q9Y243 whole entry): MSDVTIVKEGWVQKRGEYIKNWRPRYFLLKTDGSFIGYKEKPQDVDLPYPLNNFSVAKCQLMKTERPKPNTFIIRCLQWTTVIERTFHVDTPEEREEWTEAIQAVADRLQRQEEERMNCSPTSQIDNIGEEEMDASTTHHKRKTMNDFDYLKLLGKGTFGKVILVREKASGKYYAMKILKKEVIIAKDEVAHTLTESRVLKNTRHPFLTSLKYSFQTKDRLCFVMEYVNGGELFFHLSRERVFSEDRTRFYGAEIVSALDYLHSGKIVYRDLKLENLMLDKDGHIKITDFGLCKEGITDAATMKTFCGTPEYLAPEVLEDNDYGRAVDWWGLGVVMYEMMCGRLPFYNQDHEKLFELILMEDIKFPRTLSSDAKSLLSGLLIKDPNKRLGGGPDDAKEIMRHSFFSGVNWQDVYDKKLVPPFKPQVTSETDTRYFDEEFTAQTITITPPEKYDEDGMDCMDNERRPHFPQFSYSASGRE

[8] = Inhibition of PKC

T2 sequence (P31751 whole entry): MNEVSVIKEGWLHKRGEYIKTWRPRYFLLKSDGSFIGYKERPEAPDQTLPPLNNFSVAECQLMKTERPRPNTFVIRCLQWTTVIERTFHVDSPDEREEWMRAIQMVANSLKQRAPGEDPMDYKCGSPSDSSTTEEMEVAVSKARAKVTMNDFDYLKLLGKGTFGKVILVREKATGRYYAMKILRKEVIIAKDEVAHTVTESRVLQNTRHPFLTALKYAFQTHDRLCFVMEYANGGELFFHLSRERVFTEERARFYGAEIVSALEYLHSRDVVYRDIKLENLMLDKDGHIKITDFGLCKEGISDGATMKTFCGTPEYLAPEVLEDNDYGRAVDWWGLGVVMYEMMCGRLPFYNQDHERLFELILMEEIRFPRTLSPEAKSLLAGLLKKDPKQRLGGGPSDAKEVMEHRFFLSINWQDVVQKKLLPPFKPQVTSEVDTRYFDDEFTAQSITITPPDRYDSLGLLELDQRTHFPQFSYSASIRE
T1 sequence (P31749 whole entry): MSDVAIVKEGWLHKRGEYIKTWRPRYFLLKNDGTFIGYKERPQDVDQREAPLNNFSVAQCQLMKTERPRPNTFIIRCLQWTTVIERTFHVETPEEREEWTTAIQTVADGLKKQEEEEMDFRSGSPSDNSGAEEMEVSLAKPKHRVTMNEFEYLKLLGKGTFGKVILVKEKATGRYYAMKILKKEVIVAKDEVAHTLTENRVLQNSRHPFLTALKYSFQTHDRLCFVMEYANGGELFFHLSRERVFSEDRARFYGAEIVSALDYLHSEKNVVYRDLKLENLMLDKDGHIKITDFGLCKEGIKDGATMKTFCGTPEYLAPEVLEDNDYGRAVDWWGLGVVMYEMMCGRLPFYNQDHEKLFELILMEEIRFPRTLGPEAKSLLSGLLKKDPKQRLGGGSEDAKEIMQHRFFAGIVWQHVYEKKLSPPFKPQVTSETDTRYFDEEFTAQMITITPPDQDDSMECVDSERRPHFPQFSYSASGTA

Structure (SMILES): CSc1ncc2cc(-c3ccccc3)c(-c3ccc(CNCCCN4CCN(C)CC4)cc3)nc2n1
- IC50 [1]: 765 nM
- IC50 [2]: 8920 nM

Structure (SMILES): CSc1ncc2cc(-c3ccccc3)c(-c3ccc(CNCCc4c[nH]cn4)cc3)nc2n1
- IC50 [1]: 99 nM
- IC50 [2]: 1240 nM

Structure (SMILES): CSc1ncc2cc(-c3ccccc3)c(-c3ccc(CNCCc4nc[nH]n4)cc3)nc2n1
- IC50 [1]: 139 nM
- IC50 [2]: 1710 nM

Structure (SMILES): CSc1ncc2cc(-c3ccccc3)c(-c3ccc(CNCCc4nccs4)cc3)nc2n1
- IC50 [1]: 198 nM
- IC50 [2]: 1380 nM

Structure (SMILES): CSc1ncc2cc(-c3ccccc3)c(-c3ccc(CNCCCn4ccnc4)cc3)nc2n1
- IC50 [1]: 137 nM
- IC50 [2]: 1510 nM

Structure (SMILES): CSc1ncc2cc(-c3ccccc3)c(-c3ccc(CN(C)CCc4cn[nH]c4)cc3)nc2n1
- IC50 [1]: 1520 nM
- IC50 [2]: 17500 nM

Structure (SMILES): CSc1ncc2cc(-c3ccccc3)c(-c3ccc(CNCCc4nnc(-c5ccccc5)[nH]4)cc3)nc2n1
- IC50 [1]: 63 nM
- IC50 [2]: 494 nM

Structure (SMILES): CSc1ncc2cc(-c3ccccc3)c(-c3ccc(CNCCc4nnc(N)s4)cc3)nc2n1
- IC50 [1]: 46 nM
- IC50 [2]: 529 nM

Structure (SMILES): CSc1ncc2cc(-c3ccccc3)c(-c3ccc(CNCCC(=O)c4ccccc4N)cc3)nc2n1
- IC50 [1]: 15 nM
- IC50 [2]: 90 nM

Structure (SMILES): CSc1ncc2cc(-c3ccccc3)c(-c3ccc(CN4CCC(C(N)=O)CC4)cc3)nc2n1
- IC50 [1]: 29 nM
- IC50 [2]: 928 nM
- IC50 [3]: 9260 nM
- IC50 [4]: 560 nM

Structure (SMILES): CCNC(=O)NC1CCN(Cc2ccc(-c3nc4nc(SC)ncc4cc3-c3ccccc3)cc2)CC1
- IC50 [1]: 81 nM
- IC50 [2]: 1910 nM
- IC50 [3]: 5300 nM
- IC50 [4]: 795 nM

Structure (SMILES): CSc1ncc2cc(-c3ccccc3)c(-c3ccc(CN4CCC(C(=O)NCCC(N)=O)CC4)cc3)nc2n1
- IC50 [1]: 91 nM
- IC50 [2]: 2110 nM

Structure (SMILES): CSc1ncc2cc(-c3ccccc3)c(-c3ccc(CN4CCC(NC(=O)CNC(C)=O)CC4)cc3)nc2n1
- IC50 [1]: 286 nM
- IC50 [2]: 5130 nM

Structure (SMILES): CSc1ncc2cc(-c3ccccc3)c(-c3ccc(CN4CCC(C(=O)Nc5ccncc5)CC4)cc3)nc2n1
- IC50 [1]: 9.7 nM
- IC50 [2]: 301 nM
- IC50 [3]: 1130 nM
- IC50 [4]: 133 nM

Structure (SMILES): CNc1ncc2cc(-c3ccccc3)c(-c3ccc(CN4CCC(c5nnc(-c6ccccn6)[nH]5)CC4)cc3)nc2n1
- IC50 [1]: 6 nM
- IC50 [2]: 94.4 nM
- IC50 [5]: > 50000 nM
- IC50 [3]: 899 nM
- IC50 [6]: > 50000 nM
- IC50 [7]: 2470 nM
- IC50 [8]: > 50000 nM
- IC50 [4]: 20.3 nM

Structure (SMILES): Nc1ncnc2nc(-c3ccc(CN4CCC(c5nc6ccc(F)cc6[nH]5)CC4)cc3)c(-c3ccccc3)cc12
- IC50 [2]: 239 nM
- IC50 [3]: 1810 nM

Structure (SMILES): Nc1ncnc2nc(-c3ccc(CN4CCC(n5ncc6c(N)ncnc65)CC4)cc3)c(-c3ccccc3)cc12
- IC50 [1]: 14 nM
- IC50 [2]: 99 nM
- IC50 [3]: 468 nM
- IC50 [4]: 295 nM

Structure (SMILES): CSc1ncc2cc(-c3ccccc3)c(-c3ccc(CN4CCC(n5ncc6c(N)ncnc65)CC4)cc3)nc2n1
- IC50 [1]: 4 nM
- IC50 [2]: 44 nM
- IC50 [3]: 828 nM
- IC50 [4]: 60 nM

Structure (SMILES): CSc1ncc2cc(-c3ccccc3)c(-c3ccc(CN4CCC(c5nnc(-c6ccccn6)[nH]5)CC4)cc3)nc2n1
- IC50 [1]: 3.8 nM
- IC50 [2]: 26 nM
- IC50 [3]: 589 nM
- IC50 [4]: 9.3 nM

Structure (SMILES): CSc1ncc2cc(-c3ccccc3)c(-c3ccc(CNCCC(N)=O)cc3)nc2n1
- IC50 [1]: 226 nM
- IC50 [2]: 1300 nM

Structure (SMILES): CSc1ncc2cc(-c3ccccc3)c(-c3ccc(CNCCc4cccnc4)cc3)nc2n1
- IC50 [1]: 90 nM
- IC50 [2]: 1160 nM

Structure (SMILES): CSc1ncc2cc(-c3ccccc3)c(-c3ccc(CNCCc4nnc(C)[nH]4)cc3)nc2n1
- IC50 [1]: 162 nM
- IC50 [2]: 1790 nM

Structure (SMILES): CSc1ncc2cc(-c3ccccc3)c(-c3ccc(CN4CCC(c5nnc(N)s5)CC4)cc3)nc2n1
- IC50 [1]: 8.5 nM
- IC50 [2]: 267 nM
- IC50 [3]: 1570 nM
- IC50 [4]: 79 nM

Structure (SMILES): COc1ncc2cc(-c3ccccc3)c(-c3ccc(CN4CCC(c5nnc(-c6ccccn6)[nH]5)CC4)cc3)nc2n1
- IC50 [1]: 23.6 nM
- IC50 [2]: 107 nM
- IC50 [3]: 2300 nM
- IC50 [4]: 42.6 nM

Structure (SMILES): CSc1ncc2cc(-c3ccccc3)c(-c3ccc(CN4CCC(c5nc(-c6cccnc6)no5)CC4)cc3)nc2n1
- IC50 [1]: 64 nM
- IC50 [2]: 1300 nM

Structure (SMILES): CSc1ncc2cc(-c3ccccc3)c(-c3ccc(CN4CCC(c5cc(-c6ccncc6)[nH]n5)CC4)cc3)nc2n1
- IC50 [1]: 4.5 nM
- IC50 [2]: 57 nM
- IC50 [3]: 635 nM
- IC50 [4]: 85 nM

Structure (SMILES): N#Cc1ncc2cc(-c3ccccc3)c(-c3ccc(CN4CCC(c5nnc(-c6ccccn6)[nH]5)CC4)cc3)nc2n1
- IC50 [1]: 24 nM
- IC50 [2]: 59 nM
- IC50 [3]: 586 nM
- IC50 [4]: 100 nM

Structure (SMILES): NC(=O)c1ncc2cc(-c3ccccc3)c(-c3ccc(CN4CCC(c5nnc(-c6ccccn6)[nH]5)CC4)cc3)nc2n1
- IC50 [1]: 6.2 nM
- IC50 [2]: 35 nM
- IC50 [3]: 3710 nM
- IC50 [4]: 96.4 nM
